# Measured values reported in ChEMBL document CHEMBL1121995, “Crystal structure and anti herpes simplex virus activity of 2,2'-anhydro-1-beta-D-arabinofuranosylthymine” (1982).
# How the values were obtained:
# Assay type in all cases: functional
# Vero [1] = test: Percentage inhibition against Vero cells at a concentration of 600 uM; details: Chlorocebus sabaeus
# Vero [2] = test: Percentage inhibition against Vero cells at a concentration of 200 uM; details: Chlorocebus sabaeus
# Vero [3] = test: Dose of compound required to reduced HSV-1 induced cytopathogenicity in vero cells; details: Chlorocebus sabaeus, read-out: ED50 (the source's name)
compound,measurement,setting,value
Cc1cn(C2O[C@H](CO)[C@@H](O)[C@@H]2O)c(=O)n(C)c1=O (stereo partly drawn),inhibition at 600 µM,Vero [1],59%
same,inhibition at 200 µM,Vero [2],40%
same,EC50,Vero [3],140 nM
